Consider one molecule from PMC10547880, “Synthesis and biological evaluation of novel 1,2,3-triazole hybrids of cabotegravir: identification of potent antitumor activity against lung cancer” (Frontiers in Pharmacology, 2023).

The structures appear in SMILES notation.

Format in all cases: cell-based, Human
Series [1] relates to H460 cells. The experiment in a line: CCK8 cell viability and IC50 measurement, H460. As for the experimental part:
(§1) Human lung cancer cell line H460 and H1299, human liver normal cell line LO2 were bought from ATCC. DMEM or RPMI 1640 was used as the cell culture medium with 10% FBS and 1% penicillin/streptomycin. Cells were maintained in an incubator with 37°C humidified atmosphere and 5% CO2.
(§2) Cell viability and IC50 values were determined using the CCK8 assay kit. Cells were seeded at a density of 5 × 10^3 cells per well in a 96-well plate. After overnight adhesion, 25 μM of compounds or vehicle control DMSO which all dissolved in the culture medium were added to cells and cultured for 48 h or 72 h. CCK8 reagent, dissolved in the medium, was then added to cells and incubated for 1 h. The absorbance at 450 nm was measured using a microplate spectrophotometer (Thermo). Cell viability was calculated, with the untreated group taken as 100%. For IC50 values determination, different concentrations (0, 0.4 μM, 2 μM, 10 μM, 20 μM, 50 μM) of compounds were added to cells for 72 h. Subsequent CCK8 measurement allowed the calculation of inhibition percentage based on cell viability. The IC50 values were computed by the prism statistical software. The CCK-8 assay was conducted three times and the repetitions in each time were at least three. All the values were expressed as Mean ± SD, p < 0.05 was considered statistically significant.
(§3) In order to assess the potential cytotoxicity of the synthesized compounds, we selected two types of human non-small-cell lung cancer cell line, H460 and H1299. Cell viability and cytotoxicity were evaluated using the CCK8 assay ([Xu et al., 2018]). The cells were treated with 25 μM of compounds 5a-5s and 6a-6i for 48h and 72 h. […] In contrast, no compounds managed to reduce H1299 cell viability to less than 50%, yet compounds 5i, 5m, 6h and 6i achieved cell viability rates below 70%. […] It is worth noting that minimal effects on the cell viability of the normal cell line LO2 were observed when exposed to these compounds. Further, we determined the half-maximal inhibitory concentration (IC50) of selected compounds against H460 cells, the results of which were summarized in Table 3.

The subject of the next series is H1299 cells. The experiment in a line: CCK8 cell viability, H1299. The following applies: H1299, 25 μM, 48 h. How it is done:
as §1, §2, §3

Series [2] concerns H460 cells. Briefly: Live/dead cell staining (Calcein-AM/PI), H460. The following applies: H460, 5, 10, 20 μM, 24 h. As for the experimental part: Cells with a density of 5 × 10^3 cells per well were seeded in a 96-well plate. After overnight incubation, cells were treated with different concentrations (0, 5 μM, 10 μM, 20 μM) of compounds for 24 h. The LIVE/DEAD Assay Kit was used to dye cells, and cells were observed and photographed under a fluorescent microscope. Live and Dead cell numbers were counted and the ratio of dead to living cells were calculated. Values were expressed as Mean ± SEM, p < 0.05 was considered statistically significant. Data were performed using Graph Prim 7.0. To assess the anti-proliferative effects of compound 5i, live/dead cell staining was performed using Calcein Acetoxymethyl Ester (Calcein-AM) and Propidium Iodide (PI) dyes ([Xie et al., 2023]). Calcein-AM highlights live cells through green fluorescence emission, while PI identifies dead cells with damaged membrane integrity, producing red fluorescence. H460 and H1299 cells were treated with different concentrations (0, 5, 10 and 20 μM) of compound 5i for 24 h. After 24 h treatment, cells were stained with Calcein-AM and PI, diluted in cultured medium, and incubated for an hour in dark. Then the fluorescence was detected and photographed using a fluorescent microscope. […] In addition, we also performed plate clone formation assay ([Xu et al., 2018]) to further investigate the anti-proliferation ability of compound 5i. […]

The test system of series [3] is H460 cells. Briefly: Cellular ROS measurement (DCFH-DA), H460. The following applies: H460, 5, 10 or 20 μM, 24 h. As for the experimental part:
Cells with a density of 5 × 10^3 cells/well were cultured in a 96-well plate. The cells were treated with different concentrations (0, 5, 10, 20 μM) of compounds for 24 h. Then the medium was replaced with 10 μM DCFH-DA dissolved in culture medium and incubated for 30min at 37°C in dark. The fluorescent cells were observed and photographed using a fluorescent microscope.
Reactive oxygen species (ROS) levels were determined quantitatively using the probe 2′-7′-dichlorodihydrofluorescin diacetate (H2DCFDA) ([Kim and Xue, 2020]). Under normal condition, ROS participated in mitochondrial electron transport, signal transduction, gene expression, and enzyme reactions. But excess or deficiency of ROS levels can result in the development of diseases including cancers, diabetes, atherosclerosis, neurodegenerative diseases and others ([Wang et al., 2023]). ROS induction is associated with mitochondrial membrane damage, cell apoptosis, and ultimately cell death ([Dixon and Stockwell, 2014]). To evaluate the effect of compound 5i on ROS generation, H460 cells were treated with 5 μM, 10 μM or 20 μM of compound 5i for 24 h. […] DCFH-DA has no fluorescence and it can pass through cell membrane freely. […] This phenomenon can be attributed to the reduction in the number of live cells; however, the observed fluorescence appeared more intense (Figure 5).

The term IC50 denotes the concentration needed to halve the response being measured. Read a low IC50 as greater potency in that assay.

In the case of `COc1c2n(cc(C(=O)Nc3cccc(-c4cn(-c5ccccc5OC(F)(F)F)nn4)c3)c1=O)CC1OCC(C)N1C2=O` (centres unmarked) [Compound 5i], in the series with H460 cells [1] (H460, 72-h treatment), the “cell proliferation inhibition rate” value is listed as “exceed 50%”. The molecule further returned an IC50 with H460 cells [1] (H460, 72 h, CCK8) of 6.06 ± 1.8 µM. In addition, the Cell viability in the series on H1299 cells is recorded as 90.47%. The “live and dead cell numbers” value in the series with H460 cells [2] was “significantly decreased the number of live cells and increased the number of dead cells”. Moreover, in the series with H460 cells [3], the ROS generation result is “significant augmentation in ROS generation”.
